pEC50, pIC50: −log10 of the molar value. Calls of active or inactive are those of the source.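 How the source made its calls: active means compounds giving half or more protection of infected cells from virus-caused growth loss, again on retest; inactive means the rest.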 Where a SMILES comes first, the peptide text is derived from it. [ ]: non-standard residue; d: D form. The star is where a group is joined. ξ: configuration not given here. Boc = CC(C)(C)OC(=O)*; ξV = CC(C)C(N)C(=O)O; OBn = c1ccc(CO*)cc1
Test system: CEM cells HIV-1 protection, formazan growth assay
Assay: NCI AIDS Antiviral Assay
Conditions: for pIC50: measured here: growth of uninfected CEM cells
Method in brief: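 CEM (human) cells, HIV-1 infected vs uninfected, 5-point dosing, formazan growth read-out. Retest threshold 50% protection.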

Structure (SMILES)	pEC50	pIC50	outcome
O=Nc1ccc(N=O)cc1	< 3.70	< 3.70	
CC1SC(c2ccccc2)N(Nc2c3ccccc3nc3ccccc23)C1=O (configuration not stated)	< 4.17	< 4.17	
C1=C\SS/C=C\SS/1	< 3.70	4.64	
CCCCC(=O)N1SC(NC(=O)OC)=Nc2ccccc21	< 3.51	5.17	
O=C(Nc1ccccc1)c1cc(S(=O)(=O)NC2=NC(c3ccccc3)c3cc(Cl)ccc3N2)c(SSc2cc(Cl)c(C(=O)Nc3ccccc3)cc2S(=O)(=O)NC2=NC(c3ccccc3)c3cc(Cl)ccc3N2)cc1Cl (configuration not stated)	< 3.70	< 3.70	
O=C1C=C(Br)C(=O)C(Br)=C1	< 3.59	4.63	
CC1(C)N=C(C(=O)c2ccccc2)N(O)C1(O)c1ccccc1 (configuration not stated)	< 3.70	3.87	
Cc1ccc(C(=O)CC2(O)C(=O)Nc3c(C)cc(Cl)cc32)cc1 (configuration not stated)	< 3.96	< 3.96	
O=C(c1nc2cc([N+](=O)[O-])ccc2[nH]c1=O)C(O)c1ccco1 (configuration not stated)	< 3.70	4.21	
c1ccc(-c2nc3n(n2)CCC(c2ccccc2)S3)cc1 (configuration not stated)	4.34	< 3.70	
CC(=O)OCC1OC(N2C(c3ccccc3)=CC(c3ccco3)C(C#N)=C2S)C(OC(C)=O)C(OC(C)=O)C1OC(C)=O (configuration not stated)	3.75	< 3.70	
CCOC(=O)C1NS(=O)(=O)NC(C(=O)OCC)NS(=O)(=O)N1 (configuration not stated)			inactive
O=C1OCC2Cc3sccc3C(c3ccccc3)=C12 (configuration not stated)	< 4.01	< 4.01	
N#CC12C3C4C5C3C1C(C42)n1c(=O)n(-c2ccccc2)c(=O)n15 (configuration not stated)	< 3.70	< 3.70	
C=CCNC(=S)N/C=C(\C#N)C(N)=O	< 3.70	< 3.70	
CC(C)S(=O)(=O)ON1C(=O)c2ccc(N(C)C)cc2C1=O	< 4.08	< 4.08	
N#C/C(=C/c1cccnc1)C(=O)c1ccccc1	< 3.40	4.17	
Cc1ccc(-n2c(N)c(C#N)c3[nH]nc(N)c3c2=O)cc1	< 3.70	< 3.70	
COC(=O)C1=Nc2c(C)nn(-c3ccccc3)c2N=C(c2ccc(C)cc2)C1	< 3.70	< 3.70	
CC(=O)OC(Cc1cc(C=C(C(F)(F)F)C(F)(F)F)cc(C)n1)(C(F)(F)F)C(F)(F)F	< 3.70	6.02	

Structure (SMILES)	pEC50	pIC50	outcome
Cn1cc(C(=O)C2CCCCC2)ccc1=O	< 2.94	3.43	
O=C1OC(/C=C/c2ccccc2)C(=O)C1=O (configuration not stated)	< 2.94	< 2.94	
NC1c2c(Cl)sc(Cl)c2C(=O)C1O (configuration not stated)	< 3.70	4.45	
COc1ccc(OC2OC(COC(c3ccccc3)(c3ccc(OC)cc3)c3ccc(OC)cc3)C(O)C(O)C2O)cc1 (configuration not stated)	< 3.70	5.05	
N#C/C(=C\c1ccc(O)c(O)c1)C(=O)NCCCCNC(=O)/C(C#N)=C/c1ccc(O)c(O)c1	< 3.70	4.62	
COC(=NC(C)C)NC(C)C	< 3.70	< 3.70	
COC1=CC(=O)[C@]2(C)[C@H](C1=O)C(C)[C@H]2c1ccccc1 (some centres not stated)	< 4.02	< 4.02	
COc1cc2c(cc1OC)CC(N=[N+]=[N-])c1cc(OC)c(OC)cc1/C=C\2 (configuration not stated)	< 3.70	4.15	
CNc1ccc(C=C2c3ccccc3-c3ccccc32)cc1	< 4.88	5.32	
CCN(CC)c1ccc2c(c1)Oc1ccc(N(CC)CC)cc1C21Oc2ccccc2-c2c1c1ccccc1n2CC (configuration not stated)			inactive
O=C(Sc1c(-c2ccccc2)c(=O)n(-c2ccccc2)c(=S)n1-c1ccccc1)c1cccs1	< 3.70	4.66	
COc1cc2nc(NCCCCCNC(=O)c3ccco3)nc(N)c2cc1OC	< 3.24	4.45	
CCC(C)C(=O)O[C@H]1C(=O)O[C@@H]2C[C@H]3C(C)=CC(=O)[C@@H](O)[C@]3(C)[C@H]3[C@@H](O)[C@H](O)[C@@]4(C)OC[C@]32[C@@H]14 (some centres not stated)	< 5.28	8.05	
Cc1ccc2nc(CN(CCO)CCO)cc(=O)n2c1	< 3.70	< 3.70	
COC(=O)c1cc(C(=C(Cl)Cl)c2cc(C(=O)OC)c(OC)c(Br)c2C)c(C)c(Br)c1OC	< 3.70	4.10	
Cc1ccc(S(=O)(=O)NC(=O)NCCCSSCCCNC(=O)NS(=O)(=O)c2ccc(C)cc2)cc1	< 3.70	< 3.70	
CC(O)c1c2c(cc3c1CC1(C3)Cc3cc4c(c(C(C)O)c3C1)CCC4)CCC2 (configuration not stated)	< 3.70	5.02	
COc1ccc(CCC2NCCc3cc(OC)c(OC)cc32)cc1 (configuration not stated)	< 3.16	3.99	
CC(C)C(NC(=O)OC(C)(C)C)C(=O)NCC(=O)OCc1ccccc1 (configuration not stated) (Boc-[ξV]-Gly-OBn)	< 3.70	4.55	
O=C(c1ccccc1)C1C(c2ccccc2)N1S(=O)(=O)c1ccccc1 (configuration not stated)	< 4.70	5.52	

Structure (SMILES)	pEC50	pIC50	outcome
O=C1[C@@H]2C(c3ccccc3[N+](=O)[O-])=NO[C@@H]2C(=O)N1c1ccc(Cc2ccc(N3C(=O)[C@H]4C(c5ccccc5[N+](=O)[O-])=NO[C@H]4C3=O)cc2)cc1	< 4.70	< 4.70	
CO/C(=N\N=Cc1ccccc1)c1ccncc1	4.82	3.78	
CNC(=S)NNc1ncnc2c1ncn2-c1ccc(C)cc1	< 3.70	4.24	
CC(=O)Oc1ccccc1C(=O)Nc1ccc(S(=O)(=O)c2ccc(NC(=O)c3ccccc3OC(C)=O)cc2)cc1	< 3.70	< 3.70	
CN(C)CCNC(=O)c1cccc(CO)c1[N+](=O)[O-]	< 3.70	< 3.70	
CS(=O)(=O)OC1CCC2(C#N)CCC1C2=O (configuration not stated)	< 2.99	< 2.99	
CCOC(=O)/C(O)=C1\C(=O)N(C)C(=O)C1c1ccc(OC)c(OC)c1 (configuration not stated)			inactive
CC(=O)O[C@H]1[C@@H]2[C@@H](C[C@H](C)[C@H]3C=CC(=O)[C@@]31C)OC(=O)[C@@H]2C	< 3.70	4.46	
COc1c2c(c(O)c3c4c(c(C)cc13)C1OC3(C(OC)OC5CC(C)(O)C(OC6CC(C)(O)C(O)C(C)O6)C(C)O5)OC1C(OC)(O4)C31CO1)C(=O)C(O)CC2OC1CC(C)(O)C(OC(C)=O)C(C)O1 (configuration not stated)	< 4.58	8.08	
O=S(=O)(NC1OCCCC1I)c1ccccc1 (configuration not stated)	< 3.70	< 3.70	
Cc1nc(N)nc(N)c1N1CCN(c2ccc(C(=O)NC(CCC(=O)O)C(=O)O)cc2)CC1 (configuration not stated)	< 3.70	7.20	
Nc1ncnc2c1ncn2C1COC(CO)C1CO (configuration not stated)	4.06	< 3.70	
O=[N+]([O-])c1ccc(-c2noc(-c3ccc(Cl)cc3)c2C2=NCCN2)cc1	< 4.85	< 4.85	
CCSCCCCCCCCCCC(=O)O	< 3.70	4.20	
Nc1c(-c2nc3ccccc3[nH]2)sc(=S)n1-c1ccccc1	< 4.94	< 4.94	
CC(=O)Nc1ccccc1S(=O)(=O)c1ccccc1	3.52	3.49	
CC1(C)COC(c2cccc(C3=NC(C)(C)CO3)c2)=N1	< 3.70	< 3.70	
Cc1ccc(-c2c(C#N)c(-c3ccc([N+](=O)[O-])cc3)c(C#N)c(=O)n2NS(=O)(=O)c2ccccc2)cc1	< 3.70	4.78	
O=[N+]([O-])/C=C/c1cn(CCCCCn2cc(/C=C/[N+](=O)[O-])c3ccccc32)c2ccccc12	< 3.70	5.58	
c1ccc(CNCCCCNCCCNCc2ccccc2)cc1	< 3.70	4.86	

— PubChem BioAssay AID179 (DTP/NCI, 2004)
